Several values for one entry are separate records, joined by “and”; a condition that tells them apart may be missing. Equal values may be shown once. Inconclusive results and toxic doses are left out. Rule as the data show it: active = T/C of 150% or more; inactive = T/C below 125%.
Test system: L1210 leukemia ip in BDF1 mice, survival T/C
Assay: NCI In Vivo Anticancer Drug Screen. Data for tumor model L1210 Leukemia (intraperitoneal) in B6D2F1 (BDF1) mice
Conditions: endpoint: mean survival time, higher = longer survival
Outline: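 Each compound was tested against a transplantable tumor grown in mice. The endpoint was survival, with treated animals benchmarked against vehicle controls as a simple ratio.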

[1] = dose: 100.0 mg/kg/injection, schedule: Q01DX009 (ip), vehicle: Klucel (hydroxypropylcellulose) (HPC)
[2] = dose: 200.0 mg/kg/injection, schedule: Q01DX009 (ip), vehicle: Klucel (hydroxypropylcellulose) (HPC)
[3] = dose: 400.0 mg/kg/injection, schedule: Q01DX009 (ip), vehicle: Klucel (hydroxypropylcellulose) (HPC)
[4] = dose: 25.0 mg/kg/injection, schedule: Q01DX009 (ip), vehicle: water
[5] = dose: 100.0 mg/kg/injection, schedule: Q04DX003 (ip), vehicle: Klucel (hydroxypropylcellulose) (HPC)
[6] = dose: 200.0 mg/kg/injection, schedule: Q04DX003 (ip), vehicle: Klucel (hydroxypropylcellulose) (HPC)
[7] = dose: 400.0 mg/kg/injection, schedule: Q04DX003 (ip), vehicle: Klucel (hydroxypropylcellulose) (HPC)
[8] = dose: 50.0 mg/kg/injection, schedule: Q01DX009 (ip), vehicle: water
[9] = dose: 100.0 mg/kg/injection, schedule: Q01DX009 (ip), vehicle: saline with Tween-80
[10] = dose: 100.0 mg/kg/injection, schedule: Q04DX003 (ip), vehicle: saline with Tween-80
[11] = dose: 200.0 mg/kg/injection, schedule: Q01DX009 (ip), vehicle: saline with Tween-80
[12] = dose: 200.0 mg/kg/injection, schedule: Q04DX003 (ip), vehicle: saline with Tween-80
[13] = dose: 400.0 mg/kg/injection, schedule: Q01DX009 (ip), vehicle: saline with Tween-80
[14] = dose: 400.0 mg/kg/injection, schedule: Q04DX003 (ip), vehicle: saline with Tween-80
[15] = dose: 100.0 mg/kg/injection, schedule: Q01DX001 (ip), vehicle: saline
[16] = dose: 200.0 mg/kg/injection, schedule: Q01DX001 (ip), vehicle: saline
[17] = dose: 50.0 mg/kg/injection, schedule: Q01DX009 (ip), vehicle: Klucel (hydroxypropylcellulose) (HPC)
[18] = dose: 100.0 mg/kg/injection, schedule: Q04DX003 (ip), vehicle: saline

Measured: T/C

CC(=O)Oc1c2c(n3c1CCC3)CC(C)(C)CC2=O
inactive: dose: 75.0 mg/kg/injection, schedule: Q04DX002 (ip), vehicle: Klucel (hydroxypropylcellulose) (HPC) 102 % of control | dose: 150.0 mg/kg/injection, schedule: Q04DX002 (ip), vehicle: Klucel (hydroxypropylcellulose) (HPC) 97 % of control | dose: 300.0 mg/kg/injection, schedule: Q04DX002 (ip), vehicle: Klucel (hydroxypropylcellulose) (HPC) 87 % of control

CCCNC(=O)Nc1ccc(Nc2ccccc2)cc1
inactive: [1] 105 % of control | [2] 103 % of control | [3] 94 % of control

O=C1C=CC(=O)N1c1ccc(Br)cc1 (tested in a mixture with another compound)
inactive: dose: 100.0 mg/kg/injection, schedule: Q04DX003 (ip), vehicle: acetone 96 % of control | dose: 200.0 mg/kg/injection, schedule: Q04DX003 (ip), vehicle: acetone 89 % of control | dose: 400.0 mg/kg/injection, schedule: Q04DX003 (ip), vehicle: acetone 91 % of control

CCN(CC)CCCC(C)NC/C=C/CNC(C)CCCN(CC)CC (configuration not stated)
inactive: dose: 0.78 mg/kg/injection, schedule: Q01DX009 (ip), vehicle: water 104 % of control | dose: 6.25 mg/kg/injection, schedule: Q04DX003 (ip), vehicle: water 105 % of control | dose: 12.5 mg/kg/injection, schedule: Q04DX003 (ip), vehicle: water 92 % of control | [4] 104 % of control | dose: 25.0 mg/kg/injection, schedule: Q04DX003 (ip), vehicle: water 103 % of control

CCNC(=O)c1cc(NCC)nc(Cl)n1
inactive: [5] 97 % of control | [6] 94 % of control | [7] 101 % of control

NC(N)=Nc1ccc(OC(=O)c2ccc(N=C(N)N)cc2)cc1
inactive: [4] 96 % of control | [8] 96 % of control

CC(=O)C(C(C)=O)C(=O)c1ccccc1
inactive: dose: 222.0 mg/kg/injection, schedule: Q01DX Z (ip), vehicle: saline 100 % of control | dose: 333.0 mg/kg/injection, schedule: Q01DX Z (ip), vehicle: saline 90 % of control | dose: 500.0 mg/kg/injection, schedule: Q01DX Z (ip), vehicle: saline 103 % of control

CC(=O)N1C(=O)N(Cl)C(=O)C1(c1ccc(Cl)cc1)c1ccc(Cl)cc1
inactive: [9] 108 % of control | [10] 92 % of control | [11] 104 % of control | [12] 100 % of control | [13] 102 % of control | [14] 98 % of control

CC[n+]1cn(-c2ccc(S(=O)(=O)[O-])cc2)nn1
inactive: [15] 101 % of control | [16] 110 % of control

c1cc2cc3c(cc2cc1CC1NCCc2cc4c(cc21)OCO4)OCO3 (configuration not stated)
inactive: [17] 88 % of control | [1] 101 % of control | [5] 100 % of control | [6] 94 % of control

O=C1c2cccc3cc([N+](=O)[O-])cc(c23)C(=O)N1CCCN(CCO)CCO
inactive: dose: 12.5 mg/kg/injection, schedule: Q01DX009 (ip), vehicle: Klucel (hydroxypropylcellulose) (HPC) 104 % of control | dose: 25.0 mg/kg/injection, schedule: Q01DX009 (ip), vehicle: Klucel (hydroxypropylcellulose) (HPC) 105 % of control | [17] 91 % of control

c1cc(OCC2CO2)ccc1OCC1CO1 (configuration not stated)
inactive: dose: 100.0 mg/kg/injection, schedule: Q01DX001 (ip), vehicle: other 115 % of control | dose: 200.0 mg/kg/injection, schedule: Q01DX001 (ip), vehicle: other 124 % of control | dose: 400.0 mg/kg/injection, schedule: Q01DX001 (ip), vehicle: other 121 % of control

CC(C)(C)c1ccc(P(=O)(O)C(C)(C)C)cc1
inactive: dose: 75.0 mg/kg/injection, schedule: Q01DX001 (ip), vehicle: saline 96 % of control | dose: 150.0 mg/kg/injection, schedule: Q01DX001 (ip), vehicle: saline 102 % of control

CC(=O)CC(C[N+](=O)[O-])c1ccccc1 (configuration not stated)
inactive: [1] 100 % of control | [2] 100 % of control | [3] 100 % of control

O=Cc1ccc(/C=C2\NC(=O)NC2=O)cc1
inactive: [4] 90 % of control | [8] 92 % of control | dose: 100.0 mg/kg/injection, schedule: Q01DX009 (ip), vehicle: water 96 % of control | dose: 200.0 mg/kg/injection, schedule: Q01DX009 (ip), vehicle: water 93 % of control

CSc1ccc(NC(=S)NC(=O)c2ccc(Cl)cc2Cl)cc1
inactive: [9] 93 % of control and 89 % of control | dose: 100.0 mg/kg/injection, schedule: Q04DX002 (ip), vehicle: saline with Tween-80 90 % of control and 92 % of control | [11] 96 % of control and 88 % of control | dose: 200.0 mg/kg/injection, schedule: Q04DX002 (ip), vehicle: saline with Tween-80 93 % of control and 100 % of control | [13] 96 % of control and 100 % of control | dose: 400.0 mg/kg/injection, schedule: Q04DX002 (ip), vehicle: saline with Tween-80 107 % of control and 90 % of control

Cc1ccc(OC(=O)Nc2ccc(C(=O)O)c(O)c2)cc1
inactive: dose: 100.0 mg/kg/injection, schedule: Q01DX009 (ip), vehicle: saline 96 % of control | [18] 96 % of control | dose: 200.0 mg/kg/injection, schedule: Q01DX009 (ip), vehicle: saline 89 % of control | dose: 200.0 mg/kg/injection, schedule: Q04DX003 (ip), vehicle: saline 93 % of control | dose: 400.0 mg/kg/injection, schedule: Q04DX003 (ip), vehicle: saline 95 % of control

CCOC(=O)/C(=N\O)C(C)(C)c1ccnc2ccccc12
inactive: [10] 86 % of control | [12] 88 % of control | [14] 95 % of control

O=[N+]([O-])c1ccc(O)c(C2OCCCO2)c1
inactive: [15] 101 % of control | [16] 98 % of control | dose: 400.0 mg/kg/injection, schedule: Q01DX001 (ip), vehicle: saline 101 % of control

COc1ccc(NC(=O)Nc2ccc(NC(C)=O)cc2)cc1
inactive: [9] 86 % of control | [11] 92 % of control

COc1ccc2c(c1)CN(S(=O)(=O)c1ccc(C)cc1)CCC2O (configuration not stated)
inactive: [1] 96 % of control | [5] 96 % of control | [2] 116 % of control | [6] 114 % of control | [3] 98 % of control | [7] 96 % of control

CC(C)N(C(C)C)S(C)(=O)=O
inactive: [18] 92 % of control

CCCCCCCCCCCCCC[N+](C)(C)CCCCCCCCCCCCCC
inactive: dose: 12.5 mg/kg/injection, schedule: Q01DX009 (ip), vehicle: saline 108 % of control | dose: 12.5 mg/kg/injection, schedule: Q04DX003 (ip), vehicle: saline 104 % of control | dose: 25.0 mg/kg/injection, schedule: Q01DX009 (ip), vehicle: saline 106 % of control | dose: 25.0 mg/kg/injection, schedule: Q04DX003 (ip), vehicle: saline 105 % of control | dose: 50.0 mg/kg/injection, schedule: Q01DX009 (ip), vehicle: saline 90 % of control | dose: 50.0 mg/kg/injection, schedule: Q04DX003 (ip), vehicle: saline 102 % of control

O=[N+]([O-])c1ccc(OCc2ccccc2)c([N+](=O)[O-])c1
inactive: [9] 90 % of control | [10] 90 % of control | [11] 87 % of control | [12] 90 % of control | [13] 87 % of control | [14] 89 % of control

CC(=O)Nc1ccc(Cc2[nH]c(=O)[nH]c(=O)c2Br)cc1
inactive: dose: 100.0 mg/kg/injection, schedule: Q01DX001 (ip), vehicle: Klucel (hydroxypropylcellulose) (HPC) 93 % of control | dose: 200.0 mg/kg/injection, schedule: Q01DX001 (ip), vehicle: Klucel (hydroxypropylcellulose) (HPC) 93 % of control

CCOC(=O)n1cccc(C)c1=N
inactive: dose: 100.0 mg/kg/injection, schedule: Q01DX001 (ip), vehicle: carboxymethylcellulose (CMC) 102 % of control | dose: 200.0 mg/kg/injection, schedule: Q01DX001 (ip), vehicle: carboxymethylcellulose (CMC) 100 % of control | dose: 400.0 mg/kg/injection, schedule: Q01DX001 (ip), vehicle: carboxymethylcellulose (CMC) 102 % of control
